Measurements: article PMC12475274, “Harnessing indole scaffolds to identify small-molecule IRE1α inhibitors modulating XBP1 mRNA splicing” (Nature Communications, 2025)
Several values for one entry are separate records, joined by “and”; a condition that tells them apart may be missing. Equal entries are not always repeated. Where two headings read alike, the source gives them in different places.

Key:
[1] = target: T1, IRE1α (Homo sapiens, UniProt O75460); assay: Differential scanning fluorimetry (DSF), IRE1α; assay type: binding; conditions: for IRE1 ∆Tm(°C): Supplementary Fig. 3c, replicate values
T1 construct: Human IRE1α kinase and RNase domain (residues 547–977) was subcloned into pLIB plasmid; His tag (with TEV cleavage site) (N, cleaved yes); made in house; host or cells: Sf9 insect cells, baculovirus (Bac-to-Bac)
Protocol: (§1) The DSF assay was performed in PBS buffer containing 2 mM DTT, in a total reaction volume of 20 µl with indicated compounds (final 1% DMSO) and the final concentration of 1 µM IRE1α protein and 5× SYPRO Orange fluorescent dye (5000× in DMSO, Sigma S5692). The melting curve was measured at a temperature range from 25 °C to 95 °C and in increments of 1 °C for 30 s using a Bio-Rad CFX96 Real-Time PCR detection system with the FRET scan mode. The melting temperature (Tm) was obtained by fitting the melting curve to Boltzmann sigmoidal in GraphPad Prism and the thermal shift (∆Tm) was calculated by using the equation: ∆Tm = Tm(compound) -Tm(DMSO).

[2] = target: T2, p-IRE1α (Homo sapiens, UniProt O75460); assay: Differential scanning fluorimetry (DSF), p-IRE1α; assay type: binding; conditions: individual replicate values
T2 construct: Human IRE1α kinase and RNase domain (residues 547–977) was subcloned into pLIB plasmid; His tag (with TEV cleavage site) (N, cleaved yes); made in house; host or cells: Sf9 insect cells, baculovirus (Bac-to-Bac)
Protocol: as §1

[3] = target: T3, phosphorylated IRE1α (p-IRE1α) (Homo sapiens, UniProt O75460); assay: FRET-based IRE1α RNase activity assay, phosphorylated IRE1α; assay type: biochemical
T3 construct: Human IRE1α kinase and RNase domain (residues 547–977) was subcloned into pLIB plasmid; His tag (with TEV cleavage site) (N, cleaved yes); made in house; host or cells: Sf9 insect cells, baculovirus (Bac-to-Bac)
Protocol: (§2) Human IRE1α kinase and RNase domain (residues 547–977) was subcloned into pLIB plasmid with a His tag and TEV cleavage site, and expressed using Bac-to-Bac expression system. The primers used are listed in Supplementary Table S3. The protein purification was performed following established procedures. Briefly, Sf9 cells were infected with baculovirus and incubated at 27 °C 110 rpm for 72 h. The cells were collected by centrifugation at 4000 × g for 15 min and the cell pellet was resuspended in lysis buffer (50 mM HEPES pH 7.5, 300 mM NaCl, 10% glycerol, 1 mM MgCl2, 1 mM TCEP, 5 mM imidazole), then supplemented with 1:10,000 benzonase (Sigma, E1014), 1 tablet/25 mL […]™ Protease Inhibitor Cocktail tablets (Sigma, S8830) and 1 mM PMSF before lysed by sonication at 4 °C. […] The protein elution was incubated with TEV protease to remove His tag at 4 °C overnight. Then the sample was diluted 1:6 in buffer (50 mM HEPES pH 7.5, 1 mM TCEP, 5% glycerol) and loaded onto a 5 mL pre-packaged Q HP anion exchange column (Cytiva, HiTrap Q HP) pre-equilibrated with QA buffer (50 mM HEPES pH 7.5, 50 mM NaCl, 1 mM TCEP, 5% glycerol). The unphosphorylated and phosphorylated protein was separated by eluting the protein with a very shallow gradient with 0-30% buffer QB (50 mM HEPES pH 7.5, 1 M NaCl, 1 mM TCEP, 5% glycerol) over 80 CV. Different peaks were collected separately and verified by LC-MS. The fully phosphorylated fraction was collected and further purified by size exclusion chromatography (Cytiva, HiLoad 16/600 Superdex 200 pg,) with SEC buffer (25 mM HEPES pH 7.5, 250 mM NaCl, 1 mM TCEP, 10% glycerol) and fractioned as monomeric peak. The rest protein fraction from the Q HP anion exchange column was incubated with Lambda protein phosphatase (New England BioLabs, P0753S) overnight at 4 °C, the dephosphorylation was confirmed by LC-MS. The unphosphorylated protein was further purified by size exclusion chromatography with the SEC buffer described above. The purified phosphorylated (p-IRE1α) and dephosphorylated (IRE1α) protein aliquots were stored at −80 °C for future usage.
(§3) The dual-labeled RNA substrate with a FAM at 5’ and the BHQ-1 at 3’ containing the XBP1 sequence (5′FAM-[…]-3′BHQ1) was purchased from Integrated DNA Technologies (IDT). The FRET-based IRE1α RNase activity assay was carried out in reaction buffer containing 20 mM HEPES pH 7.5, 50 mM KOAc, 1 mM MgOAc2, 1 mM DTT, 0.05% v/v TritonX-100, at a total reaction volume of 20 μL in a 384-well black plate (4514, Corning). For unphosphorylated IRE1α (IRE1α), a final concentration of 40 nM IRE1α protein and 100 nM RNA substrate was used. For phosphorylated IRE1 (p-IRE1α), a final concentration of 4 nM p-IRE1α protein and 200 nM RNA substrate was used. The indicated compound and IRE1α protein were incubated for 30 min at room temperature before the substrate was added to the reaction. The plate was then kinetically read over one hour at room temperature using a TECAN Spark plate reader. The measurement was carried out using the fluorescence top reading mode at the excitation wavelength of 485 nm and the emission wavelength of 535 nm with a 10 nm excitation and emission bandwidth. The linear part of the reaction curve was adopted and fitted with sample linear regression to obtain the slope, and the slope was adopted to reflect the reaction rate. The inhibition % was calculated by using the equation: inhibition% = 100 × (slope of DMSO control – slope of the sample)/(slope of DMSO control – slope of blank control), DMSO control: DMSO with protein and RNA substrate; Blank control: DMSO with RNA substrate. The IC50 values were calculated using the concentration-response model in GraphPad Prism 9.

[4] = target: T4, dephosphorylated IRE1α (547–977) (Homo sapiens, UniProt O75460); assay: FRET-based IRE1α RNase activity assay, dephosphorylated IRE1α; assay type: biochemical; conditions: FRET assay
T4 construct: Human IRE1α kinase and RNase domain (residues 547–977) was subcloned into pLIB plasmid; His tag (with TEV cleavage site) (N, cleaved yes); made in house; host or cells: Sf9 insect cells, baculovirus (Bac-to-Bac)
Protocol: as §2
as §3, with “9. […]” for “9.”

[5] = FRET assay, RNase activity, mean (± SEM), read-out: p-IRE1α IC50
[6] = FRET assay, source data, unit from Fig. 3, read-out: p-IRE1a IC50, individual replicates (n1-n4)
[7] = RNase activity, mean (± SEM), read-out: IRE1α IC50
[8] = source data, unit from Fig. 3 / sheet Fig. 2b, read-out: IRE1a IC50, individual replicates (n1-n4)
[9] = FRET assay, RNase activity, mean (± SEM)

T2 sequence (O75460 547-977): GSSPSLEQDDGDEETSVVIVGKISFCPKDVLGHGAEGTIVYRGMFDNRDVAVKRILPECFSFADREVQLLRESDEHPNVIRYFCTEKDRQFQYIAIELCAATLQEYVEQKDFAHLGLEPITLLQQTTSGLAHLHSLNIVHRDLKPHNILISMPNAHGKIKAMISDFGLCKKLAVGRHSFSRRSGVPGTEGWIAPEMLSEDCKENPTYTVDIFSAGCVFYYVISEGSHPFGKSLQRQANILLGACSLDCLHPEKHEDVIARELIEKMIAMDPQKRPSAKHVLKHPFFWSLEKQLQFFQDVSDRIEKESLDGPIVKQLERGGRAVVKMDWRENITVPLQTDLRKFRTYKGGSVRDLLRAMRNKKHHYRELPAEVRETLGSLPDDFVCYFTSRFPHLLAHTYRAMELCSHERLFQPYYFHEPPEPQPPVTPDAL
T4 sequence (O75460 547-977): as above
T1 sequence (O75460 547-977): as above
T3 sequence (O75460 547-977): as above

Structure (SMILES)	IC50 [3, 5]	IC50 [3, 6]	IC50 [4, 7]	IC50 [4, 8]	other results
COc1ccc2c(c1)c(CCC(=O)O)c(C)n2C(=O)c1cccc(C#N)c1 [IA30]	40 nM	57 nM and 41 nM and 21 nM	90 nM and 85 nM	63.5 nM and 100 nM and 91.3 nM	stabilization of IRE1α in DSF [1]: concentration-dependently stabilized; IRE1 ∆Tm(°C) ([1]; compound 6.25 μM): 0.71 °C and 0.59 °C; IRE1 ∆Tm(°C) ([1]; compound 12.5 μM): 1.19 °C and 1.23 °C; IRE1 ∆Tm(°C) ([1]; compound 25 μM): 1.84 °C and 1.88 °C; IRE1 ∆Tm(°C) ([1]; compound 50 μM): 2.92 °C and 2.84 °C; p-IRE1a ∆Tm(°C) ([2]; compound 6.25 μM): 0.49 °C and 0.43 °C; p-IRE1a ∆Tm(°C) ([2]; compound 12.5 μM): 0.57 °C and 0.74 °C; p-IRE1a ∆Tm(°C) ([2]; compound 25 μM): 1.03 °C and 1.24 °C; p-IRE1a ∆Tm(°C) ([2]; compound 50 μM): 1.59 °C and 1.56 °C; IC50 ([3]; p-IRE1a, individual replicates (n1-n3), Supplementary Fig. 2b, 2c, read-out: IC50): 56.8 nM and 41.3 nM and 21.4 nM
COc1ccc2c(c1)c(CCC(=O)O)c(C)n2C(=O)C1CC1 [IA84]	1740 nM	1510 nM and 2540 nM and 1170 nM	830 nM	703 nM and 1250 nM and 531 nM	
COc1ccc2c(c1)c(CCC(=O)O)c(C)n2C(=O)c1cccc(C(F)(F)F)c1 [IA36]	60 nM and 56.1 nM	105 nM and 45 nM and 18 nM	100 nM	39.8 nM and 135 nM and 138 nM	
COc1ccc2c(c1)c(CCC(=O)O)c(C)n2C(=O)N1CCOCC1 [IA77]	> 20000 nM		> 20000 nM		p-IRE1α IC50 [3, 9]: IC₅₀ not reached; IRE1α IC50 ([4]; RNase activity, mean (± SEM)): IC₅₀ not reached

Second part, led by results:

IC50 [3, 5]	IC50 [3, 6]	IC50 [4, 7]	IC50 [4, 8]	Structure (SMILES)	other results
4680 nM	4810 nM and 5540 nM and 3680 nM	1610 nM	2690 nM and 1100 nM and 1040 nM	Cc1noc(C)c1-c1ccc2c(c1)c(CCC(=O)O)c(C)n2C(=O)c1ccccc1 [IA142]	
8810 nM and 8820 nM	6800 nM and 11600 nM and 8050 nM	1010 ± 270 nM	895 nM and 824 nM and 1320 nM	Cc1c(CCC(=O)O)c2cc(-c3cccc(C(=O)O)c3)ccc2n1C(=O)c1ccccc1 [IA149]	
> 20000 nM		7410 nM	6380 nM and 8450 nM	Cc1c(CCC(=O)O)c2cc(-c3ccc(O)cc3)ccc2n1C(=O)c1ccccc1 [IA163]	p-IRE1α IC50 [3, 9]: IC₅₀ not reached
